Molecular target: E275C gp120 (Human immunodeficiency virus type 1 group M subtype B, UniProt P35961, E271C)
Assay: covalent labeling
Type: biochemical, HIV-1
Details: α-biotin Western blot, reactants in 2-fold excess (Figure 3)

O=C(CCCC[C@@H]1SC[C@@H]2NC(=O)N[C@@H]21)NCCOCCOCCNC(=O)CCN1C(=O)C=CC1=O [MPB, Maleimide-PEG2-biotin, reference compound]
biotinylation (labeling) of E275C gp120: yields significantly lower

Source: publication PMC4045323 (Biochemistry, 2014)
